Molecular target: T1, FGB1 (Serendipita indica, UniProt G4TDB9)
T1 construct: gene PIIN_03211; native secreted mature protein purified from P. indica culture filtrate, signal peptide removed; precursor 104 residues; 6,219 Da, non-glycosylated, four disulfide bridges; no tag
Experiment: isothermal titration calorimetry (VP-ITC)
Type: binding
Settings: in water, 20 °C; single-site model, N=0.854±0.243; printed error exceeds the value (likely exponent misprint); read-out: K (converted)
Excerpt: isothermal titration calorimetry (VP-ITC) on FGB1 | The titration of gentiobiose to FGB1 was fitted to a single-side-binding model

T1 sequence (G4TDB9 entry or part of it): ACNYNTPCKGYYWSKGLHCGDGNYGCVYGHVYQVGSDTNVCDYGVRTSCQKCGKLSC

Kd: 11.4 µM
SMILES: OC[C@H]1O[C@@H](OC[C@H]2OC(O)[C@H](O)[C@@H](O)[C@@H]2O)[C@H](O)[C@@H](O)[C@@H]1O (stereo partly shown) [gentiobiose]

Reference: article PMC5095285, “The fungal-specific β-glucan-binding lectin FGB1 alters cell-wall composition and suppresses glucan-triggered immunity in plants” (Nature Communications, 2016)
